Measurements from US11407760B2, “Dioxinoquinoline compounds, preparation method and uses thereof” (BEIJING SCITECH-MQ PHARMACEUTICALS LIMITED, priority 2018, dated 2022).

What was measured:
MHCC97H cells = assay: Inhibitory activity on the proliferation of MHCC97H cells (CCK-8); format: cell-based; details: Homo sapiens, MHCC97H cell proliferation, 72 hours of incubation
Method: Biological Example 3. Assay of the Inhibitory Activity of Small Molecular Compounds on the Proliferation of MHCC97H Cells
The specific steps of the assay are as follows:
1. Dilution of compounds: a total of 9 concentrations were obtained using a 3-fold gradient dilution from the highest concentration of 5000 nM (the maximum final concentration of the drug used in this assay was 5000 nM, and the minimum final concentration was 0.76 nM).
2. MHCC97H cells were collected, then transferred to a 15 mL centrifuge tube, and centrifuged at 1000 rpm for 5 minutes.
3. The supernatant was discarded, and the complete medium was added and pipetted evenly, 10 μL of cell suspension was taken out and mixed evenly with 10 μL of 0.4% trypan blue, the counting was carried out with a cell counter, and the number and survival rate of cells were recorded;
4. The cell suspension was seeded into a 96-well plate at 5000 cells/80 μL per well;
5. 20 μL of the corresponding 5× compound solution diluted with the medium mentioned above was added to each well and mixed evenly;
6. After 72 hours of incubation, 10 μL of CCK-8 reagent was added to each well and incubated for another 2 hours (the reaction time can be adjusted according to the color depth);
7. The OD value was read at 450 nm on a multi-function plate reader.
8. Data processing: cell survival rate (%)=[(As−Ab)/(Ac−Ab)]*100%
As: OD value of assay well (medium containing cells, CCK-8, compound),
Ac: OD value of control well (medium containing cells, CCK-8),
Ab: OD value of blank well (CCK-8, medium without cell and compound),
The values were then imported into Graphpad Prism5 software for curve fitting, and IC50 was calculated.
Table 3 lists the assay results of the inhibitory activity of some compounds disclosed herein on the proliferation of the MHCC97H cell line.

VEGFR-2 kinase = VEGFR-2 kinase (Homo sapiens (Human), UniProt P35968); assay: Assay of small molecular compounds for inhibiting the activity of VEGFR-2 kinase (LANCE TR-FRET); format: biochemical; details: VEGFR-2 tyrosine kinase, 60 min reaction
Method: Biological Example 2. Assay of Small Molecular Compounds for Inhibiting the Activity of VEGFR-2 Kinase
(§1) The assay is based on the LANCE TR-FRET technology of Perkin Elmer Inc., and the assay method is as follows:
(§2) 1. Dilution of compounds: a total of 11 concentrations were obtained using a 3-fold gradient dilution from the highest concentration of 2500 nM (the maximum final concentration of the drug used in this assay was 2500 nM, and the minimum final concentration was 0.042 nM).
(§3) 2. 2.5 μL of the gradient-diluted compounds were taken with a transfer pipette to a 384-well plate.
3. Addition of enzyme: 5 μL of 2× VEGFR-2 kinase solution (concentration was 0.5 nM) was taken with a transfer pipette to the corresponding reaction well of the 384-well plate, mixed well and pre-reacted at room temperature for 30 minutes.
4. 2.5 μL 4× Ultra ULight™-JAK-1 (Tyr1023) Peptide (concentration was 200 nM)/ATP (concentration was 40 μM) mixture was taken with a transfer pipette to the corresponding reaction well of the 384-well plate.
(§4) 5. Negative control: 2.5 μL/well 4× substrate/ATP mixture and 7.5 μL 1× Kinase Assay Buffer were added to the wells of the 384-well plate.
6. Positive control: 2.5 μL/well 4× substrate/ATP mixture, 2.5 μL/well 1× Kinase Assay Buffer containing 16% DMSO, and 5 μL/well 2× VEGFR-2 kinase solution were added to the 384-well plate. The final concentration of DMSO in the reaction system was 4%.
(§5) 7. The mixture was mixed well and then centrifuged and reacted at room temperature in dark for 60 min.
(§6) 8. Termination of the enzymatic reaction: 5 μL of 4× stop solution was taken with a transfer pipette to the wells of the 384-well plate, mixed and then centrifuged, and reacted at room temperature for 5 min.
(§7) 9. Development of the reaction: 5 μL of 4× detection solution was taken with a transfer pipette to the wells of the 384-well plate for color development, and the mixture was mixed and then centrifuged and reacted at room temperature for 60 min.
(§8) 10. The 384-well plate was placed into the Envision plate reader and the signal was detected using the appropriate program.
11. Analysis and processing of the raw data:
The drug concentrations and the corresponding inhibition rates were input into GraphPad Prism5 for calculation, and the inhibition rate of the compounds were calculated as follows: inhibition rate (%)=(reading of positive well−reading of experimental well)/(reading of positive control well−reading of negative control well)×100%. Processing with GraphPad Prism5 software yielded the corresponding IC50 values (the concentration of the compound at which 50% of the highest inhibition of the enzyme is achieved).

c-MET kinase = c-MET kinase (Homo sapiens (Human), UniProt P08581); assay: Assay of small molecular compounds for inhibiting the activity of c-MET kinase (LANCE TR-FRET); format: biochemical; details: c-MET tyrosine kinase, 60 min reaction
Method: Biological Example 1. Assay of Small Molecular Compounds for Inhibiting the Activity of c-MET Kinase
as §1, §2, §3
3. Addition of enzyme: 5 μL of 2× c-MET kinase solution (concentration was 2 nM) was taken with a transfer pipette to the corresponding reaction well of the 384-well plate, mixed well and pre-reacted at room temperature for 5 minutes.
4. 2.5 μL 4× Ultra ULight™-JAK-1 (Tyr1023) Peptide (concentration was 400 nM)/ATP (concentration was 40 μM) mixture was taken with a transfer pipette to the corresponding reaction well of the 384-well plate.
as §4
6. Positive control: 2.5 μL/well 4× substrate/ATP mixture, 2.5 μL/well 1× Kinase Assay Buffer containing 16% DMSO, and 5 µL/well 2× c-MET kinase solution were added to the 384-well plate. The final concentration of DMSO in the reaction system was 4%.
as §5, §6, §7, §8
11. […]

c-MET kinase, sequence (P08581 25-1390): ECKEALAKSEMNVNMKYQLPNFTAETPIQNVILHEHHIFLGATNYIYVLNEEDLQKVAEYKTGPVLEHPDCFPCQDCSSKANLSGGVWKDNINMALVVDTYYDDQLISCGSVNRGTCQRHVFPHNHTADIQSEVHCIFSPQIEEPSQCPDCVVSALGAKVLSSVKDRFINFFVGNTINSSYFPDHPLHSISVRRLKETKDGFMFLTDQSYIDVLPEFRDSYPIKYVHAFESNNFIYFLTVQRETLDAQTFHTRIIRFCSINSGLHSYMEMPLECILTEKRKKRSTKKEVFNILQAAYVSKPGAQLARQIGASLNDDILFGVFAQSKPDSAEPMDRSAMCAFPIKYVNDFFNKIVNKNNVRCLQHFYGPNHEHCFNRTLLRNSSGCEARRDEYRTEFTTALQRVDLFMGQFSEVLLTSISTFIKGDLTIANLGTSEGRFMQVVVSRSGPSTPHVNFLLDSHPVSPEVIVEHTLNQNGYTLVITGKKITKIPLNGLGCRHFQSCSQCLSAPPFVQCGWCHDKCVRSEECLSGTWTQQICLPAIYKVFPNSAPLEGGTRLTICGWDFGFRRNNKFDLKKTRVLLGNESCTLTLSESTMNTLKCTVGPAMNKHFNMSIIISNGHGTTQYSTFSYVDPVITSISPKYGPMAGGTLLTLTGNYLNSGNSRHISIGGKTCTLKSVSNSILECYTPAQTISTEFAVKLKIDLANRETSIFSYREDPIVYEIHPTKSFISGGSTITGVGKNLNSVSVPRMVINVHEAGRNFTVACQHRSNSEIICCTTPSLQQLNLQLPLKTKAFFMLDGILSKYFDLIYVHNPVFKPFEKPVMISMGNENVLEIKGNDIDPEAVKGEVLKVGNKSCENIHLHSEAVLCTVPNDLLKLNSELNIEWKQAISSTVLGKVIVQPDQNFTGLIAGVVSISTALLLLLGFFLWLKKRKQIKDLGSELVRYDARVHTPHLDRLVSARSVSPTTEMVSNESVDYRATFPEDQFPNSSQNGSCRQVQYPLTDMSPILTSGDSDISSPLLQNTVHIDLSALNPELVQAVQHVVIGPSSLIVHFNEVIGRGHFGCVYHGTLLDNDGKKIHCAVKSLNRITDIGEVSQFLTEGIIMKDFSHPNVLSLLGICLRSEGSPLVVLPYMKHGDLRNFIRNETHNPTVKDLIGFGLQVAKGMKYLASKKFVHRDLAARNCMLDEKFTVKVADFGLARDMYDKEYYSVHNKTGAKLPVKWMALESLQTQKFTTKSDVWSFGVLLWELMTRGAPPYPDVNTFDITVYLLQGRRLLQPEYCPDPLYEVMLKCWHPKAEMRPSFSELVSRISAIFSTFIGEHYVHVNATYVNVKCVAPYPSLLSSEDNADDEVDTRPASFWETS
VEGFR-2 kinase, sequence (P35968 20-1356): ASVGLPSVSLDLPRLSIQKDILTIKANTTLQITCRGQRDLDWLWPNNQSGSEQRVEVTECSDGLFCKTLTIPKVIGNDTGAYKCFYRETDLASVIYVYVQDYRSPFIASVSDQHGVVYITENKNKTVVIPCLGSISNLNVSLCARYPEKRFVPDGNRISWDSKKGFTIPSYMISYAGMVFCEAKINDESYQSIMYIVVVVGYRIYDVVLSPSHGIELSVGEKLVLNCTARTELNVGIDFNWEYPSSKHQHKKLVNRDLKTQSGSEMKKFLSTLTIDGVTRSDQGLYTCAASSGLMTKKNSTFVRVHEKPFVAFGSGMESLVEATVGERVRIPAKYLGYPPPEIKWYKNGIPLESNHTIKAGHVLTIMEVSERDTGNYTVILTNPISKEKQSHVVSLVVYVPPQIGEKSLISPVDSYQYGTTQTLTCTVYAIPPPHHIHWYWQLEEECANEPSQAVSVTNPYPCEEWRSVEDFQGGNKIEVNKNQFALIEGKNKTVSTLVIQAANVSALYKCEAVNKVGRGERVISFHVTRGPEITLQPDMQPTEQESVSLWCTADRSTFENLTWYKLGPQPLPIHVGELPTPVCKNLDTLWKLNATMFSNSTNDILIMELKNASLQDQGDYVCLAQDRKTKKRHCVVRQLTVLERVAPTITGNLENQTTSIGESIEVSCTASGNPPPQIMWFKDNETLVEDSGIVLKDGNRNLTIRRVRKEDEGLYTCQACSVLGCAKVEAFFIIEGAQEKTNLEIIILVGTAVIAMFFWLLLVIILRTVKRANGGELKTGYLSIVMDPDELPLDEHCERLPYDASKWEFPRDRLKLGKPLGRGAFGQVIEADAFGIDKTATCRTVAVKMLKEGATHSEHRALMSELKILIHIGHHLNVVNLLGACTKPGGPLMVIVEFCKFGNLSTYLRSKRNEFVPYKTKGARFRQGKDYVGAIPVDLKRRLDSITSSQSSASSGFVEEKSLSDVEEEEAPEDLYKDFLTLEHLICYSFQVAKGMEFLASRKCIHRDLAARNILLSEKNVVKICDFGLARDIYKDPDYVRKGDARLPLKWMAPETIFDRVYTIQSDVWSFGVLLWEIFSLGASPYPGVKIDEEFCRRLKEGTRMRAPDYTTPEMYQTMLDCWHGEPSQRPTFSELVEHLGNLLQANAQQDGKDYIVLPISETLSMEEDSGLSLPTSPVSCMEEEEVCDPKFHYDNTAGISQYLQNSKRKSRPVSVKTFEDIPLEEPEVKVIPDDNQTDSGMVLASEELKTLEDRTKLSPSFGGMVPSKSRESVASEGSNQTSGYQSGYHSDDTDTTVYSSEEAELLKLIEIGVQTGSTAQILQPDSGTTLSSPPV

| SMILES | IC50 (MHCC97H cells) [nM] | IC50 (VEGFR-2 kinase) [nM] | IC50 (c-MET kinase) [nM] |
| --- | --- | --- | --- |
| N#CCOc1cc2nccc(Oc3ccc(NC(=O)C4(C(=O)Nc5ccc(F)cc5)CC4)cc3F)c2c2c1OCCO2 [Example 20, N-(4-((5-(cyanomethoxy)-2,3-dihydro-[1,4]dioxino[2,3-f]quinolin-10-yl)oxy)-3-fluorophenyl)-N-(4-fluorophenyl)cyclopropan-1,1-dicarboxamide] | < 50 | 50 to 500 |  |
| CC(C)COc1cc2nccc(Oc3ccc(NC(=O)C4(C(=O)Nc5ccc(F)cc5)CC4)cc3F)c2c2c1OCCO2 [Example 12, N-(4-((5-(isobutyloxy)-2,3-dihydro-[1,4]dioxino[2,3-f]quinolin-10-yl)oxy)-3-fluorophenyl)-N-(4-fluorophenyl)cyclopropan-1,1-dicarboxamide] |  |  | 50 to 500 |
| O=C(Nc1ccc(F)cc1)C1(C(=O)Nc2ccc(Oc3ccnc4cc(OCC5CC5)c5c(c34)OCCO5)c(F)c2)CC1 [Example 11, N-(4-((5-(cyclopropylmethoxy)-2,3-dihydro-[1,4]dioxino[2,3-f]quinolin-10-yl)oxy)-3-fluorophenyl)-N-(4-fluorophenyl)cyclopropan-1,1-dicarboxamide] |  |  | 50 to 500 |
| O=C(Nc1ccc(F)cc1)C1(C(=O)Nc2ccc(Oc3ccnc4cc(OCCCN5CCOCC5)c5c(c34)OCCO5)cc2Cl)CC1 [Example 36, N-(2-chloro-4-((5-(3-morpholinopropoxy)-2,3-dihydro-[1,4]dioxino[2,3-f]quinolin-10-yl)oxy)phenyl)-N-(4-fluorophenyl)cyclopropan-1,1-dicarboxamide] | < 50 | 50 to 500 |  |
| CC(=O)N1CCN(CCCOc2cc3nccc(Oc4ccc(NC(=O)C5(C(=O)Nc6ccc(F)cc6)CC5)cc4F)c3c3c2OCCO3)CC1 [Example 19] | < 50 | ≤ 50 | ≤ 50 |
| CN(C)CCCOc1cc2nccc(Oc3ccc(NC(=O)C4(C(=O)Nc5ccc(F)cc5)CC4)cc3F)c2c2c1OCCO2 [Example 8, N-(4-((5-(3-(dimethylamino)propoxy)-2,3-dihydro-[1,4]dioxino[2,3-f]quinolin-10-yl)oxy)-3-fluorophenyl)-N-(4-fluorophenyl)cyclopropan-1,1-dicarboxamide] | < 50 |  |  |
| O=C(Nc1ccc(F)cc1)C1(C(=O)Nc2ccc(Oc3ccnc4cc(OCCCN5CCOCC5)c5c(c34)OCCO5)cc2F)CC1 [Example 6, N-(2-fluoro-4-((5-(3-morpholinopropoxy)-2,3-dihydro-[1,4]dioxino[2,3-f]quinolin-10-yl)oxy)phenyl)-N-(4-fluorophenyl)cyclopropan-1,1-dicarboxamide] | < 50 |  |  |
| COc1cc2nccc(Oc3cc(Cl)c(NC(=O)C4(C(=O)Nc5ccc(F)cc5)CC4)cc3F)c2c2c1OCCO2 [Example 35, N-(2-chloro-5-fluoro-4-((5-methoxy-2,3-dihydro-[1,4]dioxino[2,3-f]quinolin-10-yl)oxy)phenyl)-N-(4-fluorophenyl)cyclopropan-1,1-dicarboxamide] | < 50 |  |  |
| O=C(Nc1ccc(F)cc1)C1(C(=O)Nc2ccc(Oc3ccnc4cc(OC5CCOCC5)c5c(c34)OCCO5)c(F)c2)CC1 [Example 18, N-(3-fluoro-4-((5-((tetrahydropyran-4-yl)oxy)-2,3-dihydro-[1,4]dioxino[2,3-f]quinolin-10-yl)oxy)phenyl)-N-(4-fluorophenyl)cyclopropan-1,1-dicarboxamide] |  | 50 to 500 |  |
| COc1cc2nccc(Oc3ccc(NC(=O)C4(C(=O)Nc5ccc(F)cc5)CC4)cc3)c2c2c1OCCO2 [Example 1, N-(4-fluorophenyl)-N-(4-((5-methoxy-2,3-dihydro-[1,4]dioxino[2,3-f]quinolin-10-yl)oxy)phenyl)cyclopropan-1,1-dicarboxamide] | < 50 |  |  |
